Reference: US6610699B2, “Use of L-carnitine and its alkanoyl derivatives in the preparation of medicaments with anticancer activity” (Sigma-Tau Industrie Farmaceutiche Riunite S.p.A., priority 1998, dated 2003)
Read-outs that look alike come from different tables or passages of the source. Marks after values point to notes of the source that are not given here.

Key:
[1] = tested on: BALB/c mice inoculated with murine carcinoma of the breast (L-MM3); experiment: Taxol-induced neutropenia in mice with L-MM3 carcinoma of the breast, blood cell count
Description: In addition, in this tumour model, the amount of circulating neutrophils was measured.
Acetyl L-carnitine inner salt (sterile ampoule), solubilised in water for injectable preparations, was used. Each ampoule of ALC is dissolved in 4 ml of water for injections (Solution O). 0.8 ml of (O) are brought to 50 ml with sterile PBS (Sigma) in order to perform the oral administration (100 mg/kg/50 ml).
At the time of use, the 12 mg/ml solution is diluted 1:4 with saline in phosphate buffer (PBS) (SIGMA,) and injected i.p. (30 mg/kg/10 ml).
Animals: 120 female BALB/c mice weighing 18-20 g (Harlan)
Treatment schedule 1: the transplantable murine breast cancer cells (L-MM3) of Balb/c origin are grown at 37° C. in plastic flasks in a 5% CO2 humidified incubator in DMEM medium containing 5% heat-inactivated FCS, L-glutamine 2 mM, and gentamicin 80 μg/ml. At the time of inoculation, the cells are detached with trypsin-EDTA and re-suspended in the same medium without […].
Unanaesthetised female Balb/c mice received subcutaneous injections in the flank of 4×10^5 cells in 0.2 ml of DMEM.
Four days after inoculation of the tumour, the animals were treated with the molecules according to the following schedule, for the purposes of evaluating neutropenia:
ALC is administered then for 10 days; the animals are sacrificed after 6 hours.
The experimental groups, each consisting of 15 mice, are:
Blood and bone marrow samples are taken for the first treatment schedule animals. On the days they are sacrificed, the mice are anaesthetised with CO2; blood is taken from the retro-orbital plexus (0.5 ml blood/mouse) and placed in Eppendorf test tubes containing 10 μl of Vister heparin (5000 U/ml). The animals are sacrificed by cervical dislocation. Later, the bone marrow samples are taken.
The instrument is used according to the instructions provided in the operating manual. The blood (25 μl) is taken from the dilutor and brought to a volume of 10 ml with isotonic solution (PLTA Saline, Delcon) in a beaker (dil. 1:400) (Solution A). From Solution A, the dilutor takes 100 μl and brings them to 10 ml (dil. 1:100) in another beaker (Solution B). To Solution A are added 3 drops of lysing agent (Emosol, Delcon), the solution is mixed by hand and left to act for approximately 2 minutes so that the red blood cells are lysed and HGB (haemoglobin) released. Solution A containing the lysing agent is used for the WBC and haemoglobin (HGB) readings. Solution B is used for the RBC and platelet (PLT) readings.
Double readings are done on each sample, and between one sample and the next, the instrument is washed using isotonic solution, Superfrost plus slides (25×75×1 mm) (Mensel-Glaser), ready for use, are adopted. The blood (8 μl) is deposited on the right-hand side of the slide; another slide, placed at a 45° angle, to the left of the blood, is drawn back until in comes into contact with the drop which spreads rapidly along the contact line between the two slides; the slide is moved forwards with a smooth, rapid movement so as to obtain a thin film of blood. The slide is left to dry in air, stained with Diff-Quick (DADE) dye, according to the attached instructions, and dried again in air.
The slides are immersed in Histolemon solution (Carlo Erba) for 2 sec.; a drop of synthetic mountant (Shandon) is deposited at the centre of the slide and a cover slide is placed over it covering the entire blood smear, taking care not to form bubbles between the two slides. The slides are dried and then the WBC count is performed, up to 100, with an optical microscope, after depositing a drop of cedar oil on the slide.
The quantity of […], assessed using the haemocytometer, is multiplied by the percentage value of the corresponding neutrophil granulocytes of the leukocyte formula. This parameter, divided by 100, expresses the value of neutrophils/mm^3 blood.
Comparison between the neutrophil granulocyte values obtained for the different groups is done using ANOVA.

[2] = tested on: murine cancer of the breast (L-MM3); experiment: L-MM3 tumour growth in Balb/c mice (taxol and ALC); assay type: in vivo, mouse
Description: Treatment schedule 1: the transplantable murine breast cancer cells (L-MM3) of Balb/c origin are grown at 37° C. in plastic flasks in a 5% CO2 humidified incubator in DMEM medium containing 5% heat-inactivated FCS, L-glutamine 2 mM, and gentamicin 80 μg/ml. At the time of inoculation, the cells are detached with trypsin-EDTA and re-suspended in the same medium without PBS.
Treatment schedule 2: the same experimental groups mentioned above, each consisting of 15 mice (with different cage numbers) are treated as follows in order to evaluate survival and tumour size.
ALC administration lasts 14 days (in groups 16, 17, 18) and the tumour is measured until it reaches a size of approximately 2 cm. The animals are left alive for 100 days.
The tumour size (length and width) is measured twice a week with a calliper, from the tumour is measurable. Tumour size is expressed in cm and is evaluated according to the following formula: (length×width).
Tumour sizes are compared using the non-parametric Mann Whitney test for unpaired data.

Hamsters = experiment: Bleomycin-induced pulmonary toxicity in hamsters: lung histology; assay type: in vivo, hamster; settings: day 22
Description: Hamsters weighing 120 g were treated with bleomycin (1 unit) by the intratracheal route (IT) or with an equivalent volume of saline. In addition, the animals were pre-treated with ALC (200 mg/kg) or saline intraperitoneally just before the instillation of bleomycin, followed by daily injections for 1 week. The animals were allowed 3 weeks to recover prior to taking the tissue samples. At the time tissue samples were taken (day 22), one lung of each animal was prepared for histological investigation and the other lung for quantitative determination of hydroxyproline.
The lungs were fixed by insufflation at 20 cm of H2O ex vivo with 10% formaldehyde in PBS (pH 7), embedded in paraffin, sectioned and stained with haematoxylin/eosin. Sections with similar orientation from the portion of the pulmonary lobe—upper, middle and lower, respectively—were examined to verify the presence and degree of inflammatory infiltrate, oedema and interstitial and intra-alveolar fibrosis.

LOVO human colon cancer = settings: ALC 100 mg/kg qdx18 alone
Description: Cell cultures of LOVO human colon cancer, transplanted in hairless mice, were used.
The tumour was inoculated in solid fragments in both flanks of the mice (day 0).
The inoculated tumours were measured with a calliper and when a mean tumour weight of 100 mg was reached (day 7), the animals were divided into 4 groups of 5 animals each according to the following schedule:
On the same day, ALC treatment was initiated and was continued for 18 consecutive days (qdx18) (groups 3 and 4). ALC was administered at the dose of 100 mg/kg with an administration volume of 25 ml/kg.
In the course of the treatment and in the following three weeks at fortnightly intervals, the tumours were measured and tumour volume inhibition was calculated (TVI%, calculated as 100-(mean weight of tumours treated/mean weight of control tumours×100)) as obtained with the various treatments.

[3] = Taxol-induced weight loss: body weight; assay type: in vivo, rat; settings: for Body weight, BASAL: prior to starting treatment; for Body weight, % vs BASALE / Body weight, % vs SHAM: 5 weeks; for Body weight, 5 WEEKS: end of treatment
From the text: The animals used in the preceding experimental model were weighed prior to starting treatment (basal values) and at the end of treatment.

[4] = tested on: L-MM3 murine breast cancer cells; experiment: L-MM3 murine breast cancer in Balb/c mice, taxol and PLC, Experiment A (schedule A)
Description: (§1) Cell cultures of L-MM3 murine breast cancer cells were used, cultured at 37° C. in plastic flasks in a humidified atmosphere with 5% CO^2. The cells were grown in DMEM supplemented with 10% FCS and in the presence of 2 mM L-glutamine and 80 μg/ml of gentamicin. The subconfluent cells were collected during the exponential growth phase using trypsin-EDTA and re-suspended in DMEM. They were then injected subcutaneously in female Balb/c mice weighing 20 g at a density of 4×10^5.
(§2) The tumour was measured with a calliper three times a week as soon as it became palpable. The tumour mass is calculated on the basis of the measurements of the two dimensions (length and width), expressed in mm, according to the following formula: [formula]
(§3) If we consider conventionally a tumour density equal to 1, the result is that the tumour volume is equal to (mm^3=mg).
(§4) The agent is weighed, solubilised in the specific vehicle (12 mg/ml), and stored at +4° C., sheltered from the light. At the time of use, it is diluted 1:4 with saline solution in phosphate buffer (PBS, SIGMA) and injected.
(§5) Cremophor is diluted 1:1 with ethanol and stored sheltered from the light. On the day of treatment it is diluted 1:4 with PBS.

[5] = tested on: L-MM3 murine breast cancer cells; experiment: L-MM3 murine breast cancer in Balb/c mice, taxol and PLC, Experiment B (schedule B)
Description: as §1, §2, §3, §4, §5

[6] = taxol i.v. 54 mg/kg/15 ml, sacrifice after 3 days' recovery from last taxol administration
[7] = taxol i.v., sacrifice 6 hours after fourth taxol administration
[8] = L-MM3-bearing mice, sacrifice 6 hours after last taxol

## CC(=O)O[C@H](CC(=O)[O-])C[N+](C)(C)C [ALC, acetyl L-carnitine]
[1]; acetyl L-carnitine 100 mg/kg os once daily for 10 days combined with taxol 30 mg/kg i.p. x4
  neutrophil granulocytes: 335 /mm^3
[2]; ALC 100 mg/kg os once daily for 14 days plus taxol 30 mg/kg i.p. x4
  effect on the anticancer activity of taxol (in words): did not affect the anticancer activity of taxol
Hamsters; animals pre-treated with ALC and given bleomycin IT
  lung histology (in words): a number of fibrotic areas, which, however, appeared thinner with less dense areas of collapse
Hamsters; pre-treatment/IT instillation
  lung histology (in words): normal alveolar architecture
LOVO human colon cancer
  effect on tumour growth (in words): no effect on tumour growth

## CC(=O)O[C@H]1C(=O)[C@@]2(C)[C@H]([C@H](OC(=O)c3ccccc3)[C@]3(O)C[C@H](OC(=O)[C@H](O)[C@@H](NC(=O)c4ccccc4)c4ccccc4)C(C)=C1C3(C)C)[C@]1(OC(C)=O)CO[C@@H]1C[C@@H]2O [Taxol, paclitaxel, reference compound]
[3]; taxol 8 mg/kg groups
  Body weight, BASAL: 210 ± 9.1
[3]; taxol 8 mg/kg
  Body weight, % vs BASALE: +13** %
  Body weight, % vs SHAM: +1%
  Body weight, 5 WEEKS: 237 ± 20.8
[3]; taxol 16 mg/kg groups
  Body weight, BASAL: 212 ± 12.5
[3]; taxol 16 mg/kg
  Body weight, % vs BASALE: −15** %
  Body weight, % vs SHAM: −23● %
  Body weight, 5 WEEKS: 180 ± 16.0
[1]; mouse, in vivo
  Lymphocytes: 98.6 ± 0.2%
  Neutrophils: ****1.3 ± 0.2^ %
  Platelets: 539000 ± 36057 mm^3
[2]; taxol 30 mg/kg i.p. every two days x4, when control tumours reached approximately 2 cm (control 1.8 cm)
  L-MM3 tumour size: 0.56 cm
BALB/c mice; [6]
  Absolute neutrophils: 330 ± /mm^3
  Lymphocytes: 93.0%
  Neutrophils: 7.0%
BALB/c mice; [7]
  Absolute neutrophils: 229 ± /mm^3
  Lymphocytes: 97.1%
  Neutrophils: ****2.9%
[4]
  Animals with tumours/total number of animals, Day 22: 6/13
  Animals with tumours/total number of animals, Day 25: 7/13
  Animals with tumours/total number of animals, Day 28: 9/13
  Animals with tumours/total number of animals, Day 36: 11/13
  Animals with tumours/total number of animals, Day 46: 11/13
[4]; taxol 30 mg/kg i.p. days 15,17,19,21, PLC 100 mg/kg s.c. days 12-24
  Animals with tumours/total number of animals, Day 19: 6/13
[5]
  Animals with tumours/total animals, Day 45: 5/10
  Animals with tumours/total animals, Day 59: 6/10
  Tumour size, Day 26: 0.1 ± 0.6
  Tumour size, Day 31: 0.2 ± 0.2
  Tumour size, Day 37: 0.45 ± 0.2
  Tumour size, Day 41: 1.750 ± 1.1
  Tumour size, Day 53: 5.000 ± 2.2
  Tumour size, Day 59: 5.6 ± 2.2
[5]; day of inoculation
  Tumour size, Day 0: 0
[5]; taxol 30 mg/kg i.p. days 8,10,12,14, PLC 100 mg/kg s.c. to day 59
  Animals with tumours/total animals, Day 31: 2/10

## CC(=O)O[C@H](CC(=O)[O-])C[N+](C)(C)C [Vehicle + ALC, acetyl L-carnitine]
[1]; [8]
  Absolute neutrophils: ***607 ± 68 ^ /mm^3
  Lymphocytes: 87.6 ± 0.9%
  Neutrophils: 12.3 ± 0.9%
  Platelets: 433000 ± 45731 mm^3
[1]; L-MM3-bearing mice, taxol 30 mg/kg i.p. x4, ALC 100 mg/kg os 10 days, sacrifice 6 hours after last taxol
  WBC: 4950 ± 385 Mm^3
